For assay [1], the system named is MT4. As to the kind of experiment: Effective concentration achieving 50% protection of MT-4 cells against the cytopathic effect of HIV-1. It is filed as functional, cell-based, Homo sapiens.
The nature of assay [2]: Selectivity index is the ratio of CC50 to EC50. The assay is classed as functional.
The test system of assay [3] is MT4. The assay can be described thus: Cytotoxic concentration required to reduce the viability of normal uninfected MT-4 cells by 50%. It is filed as functional, Homo sapiens.
For assay [4], the target named is Human immunodeficiency virus type 1 reverse transcriptase (Human immunodeficiency virus 1, UniProt Q72547). As to the kind of experiment: Compound was evaluated for the 50% inhibitory concentration on human immunodeficiency virus associated reverse transcriptase.

From ChEMBL document CHEMBL1124906, “5'-O-phosphonomethyl-2',3'-dideoxynucleosides: synthesis and anti-HIV activity” (J Med Chem, 1990) come the findings set out here.

In general, EC50 refers to the concentration that produces a half-maximal response. A lower EC50 goes with a more potent agent. For orientation: CC50 means the concentration at which the toxic effect on the cells reaches its halfway point. Low values mean greater toxicity to the cells, high ones lower toxicity to the cells. Broadly, the IC50 is the concentration at which inhibition is half-maximal. Low values mean greater potency, high ones weaker potency.

Bounds are passed on as bounds.

In turn, `O=c1ccn([C@H]2CC[C@@H](COCP(=O)(O)O)O2)c(=O)[nH]1` displayed an EC50 with MT4 [1] (Homo sapiens, MT4) of 90 µM. Besides, the SI in assay [2] was more than 5. In the assay with MT4 [3] (Homo sapiens, MT4), this molecule had a CC50 of more than 500 µM.
As to `Cc1cn([C@H]2C[C@H](N=[N+]=[N-])[C@@H](COCP(=O)(O)OP(=O)(O)OP(=O)(O)O)O2)c(=O)[nH]c1=O`, the concentration for a half-maximal effect (EC50) in the assay on MT4 [1] (Homo sapiens, MT4) was determined as 1.15 µM. In addition, half-maximal cytotoxicity in the assay on MT4 [3] (Homo sapiens, MT4) (CC50) was put at 0.023 µM.
In turn, `Cc1cn([C@H]2CC[C@@H](COCP(=O)(O)O)O2)c(=O)[nH]c1=O` gave an EC50 with MT4 [1] (Homo sapiens, MT4) of 500 µM. The SI in assay [2] is more than 1. The CC50 in the assay with MT4 [3] (Homo sapiens, MT4) is more than 500 µM.
For `CC1CN([C@H]2C[C@H](N=[N+]=[N-])[C@@H](COCP(=O)(O)OP(=O)(O)OP(=O)(O)O)O2)C(=O)NC1=O` (some centres undefined), in assay [4], the half-maximal inhibitory concentration (IC50) came out at 322 µM.
In the case of `Cc1cn([C@H]2C[C@H](N)[C@@H](COCP(=O)(O)O)O2)c(=O)[nH]c1=O`, the EC50 with MT4 [1] (Homo sapiens, MT4) is more than 500 µM. In assay [2], the SI is more than 1. Further, the CC50 with MT4 [3] (Homo sapiens, MT4) was more than 500 µM.
In the assay on MT4 [1] (Homo sapiens, MT4), `Cc1cn([C@H]2C[C@H](F)[C@@H](COCP(=O)(O)O)O2)c(=O)[nH]c1=O` came in with an EC50 of 0.9 µM. The SI in assay [2] came out at 19. The CC50 with MT4 [3] (Homo sapiens, MT4) came out at 17.3 µM.
Consider `Cc1cn([C@H]2C[C@H](F)[C@@H](CO)O2)c(=O)[nH]c1=O` [ALOVUDINE], for which the EC50 in the assay on MT4 [1] (Homo sapiens, MT4) worked out at 0.001 µM. Moreover, in assay [2], the SI came to 197.
In the assay with MT4 [1] (Homo sapiens, MT4), `Nc1ccn([C@H]2CC[C@@H](COCP(=O)(O)O)O2)c(=O)n1` displayed an EC50 of more than 500 µM. In addition, the SI in assay [2] is more than 1. In addition, the CC50 with MT4 [3] (Homo sapiens, MT4) is more than 500 µM.
Molecule `Cc1cn([C@H]2C[C@H](N=[N+]=[N-])[C@@H](CO)O2)c(=O)[nH]c1=O` [ZIDOVUDINE] came in with an EC50 with MT4 [1] (Homo sapiens, MT4) of 0.003 µM. Moreover, the SI in assay [2] was 1600. For the same molecule, the CC50 in the assay with MT4 [3] (Homo sapiens, MT4) was 4.8 µM.
`Cc1cn([C@H]2C[C@H](N=[N+]=[N-])[C@@H](COCP(=O)(O)O)O2)c(=O)[nH]c1=O` came in with an EC50 in the assay with MT4 [1] (Homo sapiens, MT4) of 1.28 µM. Moreover, the SI in assay [2] is 125. Besides, in the assay on MT4 [3] (Homo sapiens, MT4), the CC50 was determined as 161 µM.
In the assay on MT4 [1] (mt4), `Cc1cn([C@H]2C[C@H](F)[C@@H](COCP(=O)(O)OP(=O)(O)OP(=O)(O)O)O2)c(=O)[nH]c1=O` (stereo in doubt; 30) showed an EC50 of 100 µM. Further, in assay [2], the SI was more than 5. The molecule also showed a CC50 with MT4 [3] of more than 500 µM.
The molecule `CCOP(=O)(O)COC[C@@H]1CC[C@H](N2CCC(=N)NC2=O)O1` yielded a concentration giving a half-maximal response (EC50) in the assay on MT4 [1] (Homo sapiens, MT4) of more than 500 µM. The CC50 in the assay on MT4 [3] (Homo sapiens, MT4) is more than 500 µM.
`CO[C@H]1C[C@H](n2cc(C)c(=O)[nH]c2=O)O[C@@H]1COCP(=O)(O)O` had an EC50 in the assay on MT4 [1] (Homo sapiens, MT4) of 500 µM. Further, in assay [2], the SI is more than 1. The molecule also displayed a CC50 with MT4 [3] (Homo sapiens, MT4) of more than 500 µM.
